Results: patent US20260199224A1, “Compositions comprising Sanguisorba officinalis root extract and uses thereof” (Clariant International Ltd, priority 2022, published 2026)

Columns and labels:
[1] = tested on: bovine hyaluronidase, Type IS; assay: Anti-hyaluronidase activity, intact hyaluronic acid by BSA turbidity at 600 nm; assay type: biochemical; conditions: 15 μM
Protocol: FDTA-I and FDTA-II were purified from stimulated roots of Sanguisorba officinalis as described in example 10. In addition, ziyuglycoside I was also included in the test. For the comparison, SORE was prepared as presented in example 1.
Hyaluronidase catalyzes the degradation reaction of hyaluronic acid (HA). The test is based on the quantification of intact HA content in the presence/absence of an extract of interest and/or compounds of interest. The degradation rate of HA content is proportional to enzymatic activity of hyaluronidase and inversely proportional to the inhibition power of the extract.
The reaction mixture was prepared as follows: 37.5 μL of 20 mM PHB buffer pH 7, 187.5 μL of hyaluronidase solution (bovine hyaluronidase, Type IS, Sigma) 0.02 mg/mL, and 25 μL of sample (SORE or pure FDTA-I and FDTA-II to be tested). In the case of table 13, the pure FDTA-I and FDTA-II as well as SORE were in pure propane-1,3-diol. In the case of table 14, the pure FDTA-I and FDTA-II were in 100% ethanol. The mixture was incubated for 10 minutes at room temperature and then 250 μL of HA substrate (0.3 mg/mL in phosphate buffer) are added to initiate the reaction. Incubation is done in a Thermomixer at 37° C., under agitation (450 rpm). The reaction was monitored for 60 minutes with a sampling of the reaction mix (50 μL) every 15 minutes. These samples were inserted into the wells of a microplate containing 200 μL of BSA solution 0.1% pH 3.75 and incubated in BSA for 10 minutes. The HA formed aggregates with the BSA solution which precipitates. Thus, the amount of precipitating BSA was proportional to the optical density at 600 nm which allows to monitor the enzymatic reaction. The microplate was finally inserted into the spectrophotometer and the optical density was measured at this wavelength.

[2] = tested on: Clostridium histolyticum collagenase (type IA); assay: Anti-collagenase activity, FALGPA degradation followed by UHPLC; assay type: biochemical; conditions: 25 μM; for Residual activity, ActR (%) of collagenase: 30 minutes
Protocol: FDTA-I and FDTA-II were purified from stimulated roots of Sanguisorba officinalis, where the plant has been stimulated by using a nutrient medium without nitrogen (N/P/K 0/15/40) for 1 to 3 weeks. 10 g of dried and grinded (1 mm) roots were macerated in 100 ml of ethyl acetate for 24 h at 50° C. The purified fraction of FDTA-I and FDTA-II was obtained by preparative HPLC and characterized by mass spectrometry. Ferulic acid and TA have been purchased commercially. In addition, it was also included in the test ziyuglycoside I, an active compound isolated from Sanguisorba officinalis roots known to hold various activities including increased expression of type I collagen. For the comparison, SORE was obtained as presented in example 1. The anti-collagenase inhibiting activity was measured by following the kinetics of collagenase-driven degradation of collagenase substrate: FALGPA (N-[3-(2-Furyl) acryloyl]-Leu-Gly-Pro-Ala) into FAL (N-[3-(2-Furyl) acryloyl]-Leu) and Gly-Pro-Ala.
Briefly, a volume of 100 μL of 1.5 mM solution of FALGPA in 50 mM tricine buffer with 10 mM calcium chloride and 400 mM sodium chloride, pH 7.5 (Bachem, 4006713.0025) was mixed with a volume of 10 μL of test sample or pure solvent of the test sample (positive control), followed by a volume of 10 μL of 0.05 mg/ml of Clostridium histolyticum collagenase (type IA, Sigma-Aldrich, C9891). To determine the rate of enzymatic conversion, the content of FAL was quantified at the beginning of the reaction and 30 minutes after its initialization by stopping the enzymatic conversion of FALGPA by EDTA. To quench the enzymatic conversion, a volume of 50 μL of the test sample was mixed with a volume of 50 μL of EDTA (0.2 M in water). The content of FAL in the samples was then quantified by UHPLC method optimized to separate FALGPA and FAL. The analysis was conducted using Kinetex Biphenyl reverse phase column (150 mm×2.1 mm, 2.6 μm, Phenomenex, Torrance, USA), maintained at 40° C. The mobile phase was composed of water containing 0.1% vol. of formic acid (A) and pure acetonitrile (B), delivered at 0.5 ml/min with the gradient of B phase as follows: 5-41% (0-9 min); 41-90% (9-9.05 min); hold at 90% (9.05-11.50 min); 90-5% (11.50-11.55 min), hold at 5% (11.55-14.50 min). Sample injection volume was 5 μL and FALGPA/FAL detection at 338 nm. Residual activity and the inhibition degree of collagenase in the presence of test sample X was then calculated using the following equation: […]
ActR %—residual activity; Inh %—inhibition degree; AUC—peak area of FAL; EchX tested sample; BL—blank.

[3] = mouse, in vivo; cited from earlier work
[4] = sample in 100% ethanol (table 14)
[5] = sample in pure propane-1,3-diol (table 13)

Row | Molecule | effect on hyaluronidase, in words ([1]; comment on table 13) | effect on hyaluronidase, in words ([1]; comment on table 14) | Residual activity of hyaluronidase (%) [1, 4] | Residual activity of hyaluronidase (%) [1, 5] | inhibition of collagenase IA (Inh %) [2] | Residual activity, ActR (%) of collagenase [2] | toxicity in mice [3]
1 | COc1cc(/C=C/C(=O)OC2C(O)CC3(C)C(CCC4(C)C3CC=C3C5C(C(=O)O)(CCC(C)C5(C)O)CCC34C)C2(C)C)ccc1O (centres unmarked) [FDTA-I, feruloylated derivative of tormentic acid] | acted as a hyaluronidase inhibitor | acted as hyaluronidase inhibitors | 69% | 9.5% | 76% | 24% | –
2 | COc1cc(/C=C/C(=O)OC2C(O)CC3(C)C(CCC4(C)C3CC=C3C5C(C)C(C)CCC5(C(=O)O)CCC34C)C2(C)C)ccc1O (centres unmarked) [FDTA-II, feruloylated derivative of deoxy-tormentic acid] | – | acted as hyaluronidase inhibitors | 89% | – | 36% | 64% | –
3 | COc1cc(/C=C/C(=O)O)ccc1O [Ferulic acid, ferulic acid] | did not have any effect | – | – | 103% | do not have any effect | 96% | –
4 | C[C@@H]1CC[C@]2(C(=O)O)CC[C@]3(C)C(=CC[C@@H]4[C@@]5(C)C[C@@H](O)[C@H](O)C(C)(C)[C@@H]5CC[C@]43C)[C@@H]2[C@]1(C)O [TA, tormentic acid] | did not have any effect | – | – | 98% | do not have any effect | 98% | –
5 | C[C@@H]1CC[C@]2(C(=O)O[C@@H]3O[C@H](CO)[C@@H](O)[C@H](O)[C@H]3O)CC[C@]3(C)C(=CC[C@@H]4[C@@]5(C)CC[C@H](O[C@@H]6OC[C@H](O)[C@H](O)[C@H]6O)C(C)(C)[C@@H]5CC[C@]43C)[C@@H]2[C@]1(C)O [Ziyuglycoside I] | – | did not have any effect | 107% | – | did not have any enzymatic inhibitory effect | 106% | –
6 | Oryzanol | – | – | – | – | – | – | did not demonstrate any toxicity
